# Assay results from patent publication US10487054B2, “Therapeutic compounds” (REGENTS OF THE UNIVERSITY OF MINNESOTA, priority 2017, dated 2019).
# System: SKH-1 hairless mice
# Assay: SUV-induced mouse skin tumorigenesis, early-stage prevention model
# Assay type: in vivo
# Method: Tumor volume was calculated according to the following formula: tumor volume (mm^3)=length×width×height×0.52. […] For 4B and 4C, data are represented as mean values±S.D. and significant differences were determined by one-way ANOVA. The asterisk (*) indicates a significant decrease compared to the SUV only or the vehicle and SUV-treated groups (***, p<0.001). […] Dorsal trunk skin samples were harvested and stained with H&E (left panels) or with an antibody to detect PCNA (right panels). […] Expression of PCNA was quantified using Image-Pro Plus software and stained cells were counted from 5 separate areas on each slide (lower panel). An average of 3 samples was calculated per group. Data are expressed as mean percent of control±S.D. and the asterisks indicate a significant difference in PCNA expression (***, p<0.001). […] The expression levels of phosphorylated and total proteins were analyzed by Western blot.
# Mice were weighed once a week until the end of the study at week 28. […] SKH-1 hairless mice were treated as described in Materials and Methods. The mice in the control groups (n=9) received no vehicle/no SUV (n=3), vehicle/no SUV (n=3), or 1 mg […]/no SUV (n=3), respectively. The mice in the SUV treated group received SUV only (n=12) and the mice in the vehicle/SUV-treated group (n=12) were treated with oil-in-water emulsion cream before SUV exposure. The mice in the 0.1 mg/SUV or 1 mg/SUV groups (n=12 each) received treatment with compound 1 (0.1 or 1 mg, respectively) before SUV exposure. The frequency of irradiation was set at 3 times a week for 15 weeks. The respective doses of oil-in-water emulsion cream or compound 1 were applied topically to the dorsal area. Tumor incidence and multiplicity were recorded weekly until the end of the experiment at week 28.
# Female SKH-1 hairless mice were purchased from Charles River and were acclimated for 2 weeks before the study and had free access to food and water. All animals were maintained according to the guidelines approved by the University of Minnesota Institutional Animal Care and Use Committee (IACUC). The animals were housed in climate-controlled quarters with a 12-h light/dark cycle. The skin carcinogenesis experiments were conducted using 6-8 wk old mice with a mean body weight of 25 g. Skin carcinogenesis was induced by a solar simulated ultraviolet irradiation system. The SUV irradiation source (Q-Lab Corporation, Westlake, Ohio) emitted at wavelengths of 295 to 365 nm and the peak emission was 340 nm.
# The two mouse models included an early-stage prevention model and a late-stage prevention model. These models were designed for detecting either the respective chemopreventive effect or the potential therapeutic value of compound 1 against SUV-induced skin damage and carcinogenesis. For the early-stage prevention study, SKH-1 mice were divided into 7 groups and an oil-in-water emulsion cream was applied topically as the vehicle with or without compound 1. The three control groups included 1) mice (n=3) not treated with vehicle or SUV; 2) mice (n=3) treated with vehicle but no SUV; and 3) mice (n=3) treated with 1 mg compound 1 in vehicle but not exposed to SUV. Experimental groups included 1) mice (n=12) treated with SUV only; 2) mice (n=12) treated with vehicle followed by SUV 1 h later; 3) mice (n=12 each group) treated with topical application of 0.1 or 1 mg of compound 1 in vehicle 1 h before SUV irradiation. The topical applications and SUV treatment were applied 3 times a week for a total of 15 weeks. At 15 weeks, SUV irradiation was discontinued and topical applications continued with tumor growth monitoring for an additional 13 weeks until week 28 at which time mice were euthanized and tissues harvested.
# At week 1, mice were irradiated with SUV at a dose of 36 kJ/m^2 UVA and 1.8 kJ/m^2 UVB. At week 6, the dose of SUV reached 60 kJ/m^2 UVA and 2.9 kJ/m^2 UVB and this dose was maintained from week 6 to week 15. […]
smiles,measurement,setting,value
"O=C1Nc2ccc(C34CC5CC(CC(C5)C3)C4)cc2C1=NO [compound 1, 5-(adamantan-1-yl)-3-(hydroxyimino)indolin-2-one]",SUV-induced tumor volume,early-stage model (FIG. 4B),suppresses
same,SUV-induced epidermal thickness,"early-stage model, 0.1 or 1 mg, H&E",decreased
same,"SUV-induced phosphorylation of ERK1/2, p38, and JNKs in mouse skin","early-stage model, Western blot",dramatically suppressed
same,expression of PCNA,"early-stage model, immunohistochemistry of skin",decreased
same,average number of SUV-induced tumors,"early-stage model, week 28 (FIG. 4C)",suppresses
same,SUV-induced papilloma formation,"early-stage prevention group, topical 0.1 or 1 mg",total inhibition
same,body weight,"topical application on dorsal skin, early-stage model, to week 28",no effect on body weight
